US11634443B2, “Treprostinil prodrugs” (United Therapeutics Corporation, priority 2019, dated 2023)
Where two headings read alike, the source gives them in different places.

How the values were obtained:
[1] = Stability and formation of treprostinil in human cryopreserved hepatocytes; details: both, human, pH 7.4
[2] = Stability and formation of treprostinil in rat cryopreserved hepatocytes; details: male, Sprague-Dawley, rat, pH 7.4
[3] = Stability and formation of treprostinil in dog cryopreserved hepatocytes; details: male, Beagle, dog, pH 7.4
[4] = biological target: T1, prostaglandin I2 (PGI2) receptor (IP) (Homo sapiens, UniProt P43119); test: IP receptor cAMP assay (agonist mode); type: cell-based; details: Table 24; relative to treprostinil EC50 values; * partial agonists or ambiguous dose-response curves; image character = too high to realistically calculate
T1 construct: expressed in transfected cells; host or cells: CHO-K1
T1 sequence (P43119 whole entry): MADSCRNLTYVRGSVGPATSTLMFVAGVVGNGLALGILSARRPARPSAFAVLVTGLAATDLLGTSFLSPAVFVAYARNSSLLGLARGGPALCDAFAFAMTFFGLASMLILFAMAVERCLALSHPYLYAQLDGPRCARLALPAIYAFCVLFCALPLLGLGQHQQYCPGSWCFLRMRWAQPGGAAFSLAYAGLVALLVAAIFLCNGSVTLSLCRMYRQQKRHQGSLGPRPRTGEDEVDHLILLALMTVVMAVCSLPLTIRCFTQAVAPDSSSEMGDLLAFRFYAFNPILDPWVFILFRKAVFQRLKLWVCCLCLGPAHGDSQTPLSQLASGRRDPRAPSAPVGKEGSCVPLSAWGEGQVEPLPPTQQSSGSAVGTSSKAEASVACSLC

[5] = biological target: T2, prostaglandin E2 (PGE2) receptor 2 (EP2) (Homo sapiens, UniProt P43116); test: EP2 receptor cAMP assay (agonist mode); type: cell-based; details: Table 24; relative to treprostinil EC50 values; * partial agonists or ambiguous dose-response curves; image character = too high to realistically calculate
T2 construct: expressed in transfected cells; host or cells: HEK293T
T2 sequence (P43116 whole entry): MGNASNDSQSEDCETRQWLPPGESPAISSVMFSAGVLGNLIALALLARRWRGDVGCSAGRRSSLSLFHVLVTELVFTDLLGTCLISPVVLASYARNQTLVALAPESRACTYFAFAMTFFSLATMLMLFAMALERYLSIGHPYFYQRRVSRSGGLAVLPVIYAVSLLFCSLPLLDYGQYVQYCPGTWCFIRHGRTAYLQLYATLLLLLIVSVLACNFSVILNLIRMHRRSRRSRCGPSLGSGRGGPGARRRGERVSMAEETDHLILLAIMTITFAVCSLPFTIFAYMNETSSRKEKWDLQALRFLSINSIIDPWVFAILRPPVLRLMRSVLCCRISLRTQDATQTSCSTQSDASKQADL
Experimental: (§1) Gas Cyclic AMP (cAMP) Assay: In agonist mode testing, cells were seeded in a 384-well plate at an appropriate density and then were treated with compounds and incubated at 37° C. for 20 minutes. The reaction was terminated by sequentially adding sequentially adding trFluor™ Eu-labeled cAMP and trFluor™ 650-labeled anti-cAMP antibody in lysis buffer. […] All testing wells contained 0.1% DMSO in the final concentrations.
(§2) Data in graphs are represented in Mean±SD. Dose-dependent responses were fitted with sigmoidal dose-response curves allowing variable slopes using GraphPad Prism version 6 (Graphpad Prism).

[6] = biological target: T3, prostaglandin D2 (PGD2) receptor 1 (DP1) (Homo sapiens, UniProt Q13258); test: DP1 receptor cAMP assay (agonist mode); type: cell-based; details: Table 24; relative to treprostinil EC50 values; * partial agonists or ambiguous dose-response curves; image character = too high to realistically calculate
T3 construct: expressed in transfected cells; host or cells: HEK293T
T3 sequence (Q13258 1-359): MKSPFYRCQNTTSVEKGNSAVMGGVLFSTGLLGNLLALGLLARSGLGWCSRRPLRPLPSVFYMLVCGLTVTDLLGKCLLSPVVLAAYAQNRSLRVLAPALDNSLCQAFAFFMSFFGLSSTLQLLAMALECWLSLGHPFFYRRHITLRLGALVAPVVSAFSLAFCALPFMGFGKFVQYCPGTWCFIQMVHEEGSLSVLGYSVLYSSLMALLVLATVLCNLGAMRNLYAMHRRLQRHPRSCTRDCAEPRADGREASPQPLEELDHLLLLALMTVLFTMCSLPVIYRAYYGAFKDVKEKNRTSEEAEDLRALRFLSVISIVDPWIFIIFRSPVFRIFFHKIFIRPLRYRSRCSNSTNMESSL
Experimental: as §1, §2

[7] = biological target: T4, PGE2 receptor 1 (EP1) (Homo sapiens, UniProt P34995); test: EP1 receptor calcium assay (agonist mode); type: cell-based; details: Table 24; relative to treprostinil EC50 values; * partial agonists or ambiguous dose-response curves; image character = too high to realistically calculate
T4 construct: expressed in transfected cells; host or cells: HEK293T
T4 sequence (P34995 1-402): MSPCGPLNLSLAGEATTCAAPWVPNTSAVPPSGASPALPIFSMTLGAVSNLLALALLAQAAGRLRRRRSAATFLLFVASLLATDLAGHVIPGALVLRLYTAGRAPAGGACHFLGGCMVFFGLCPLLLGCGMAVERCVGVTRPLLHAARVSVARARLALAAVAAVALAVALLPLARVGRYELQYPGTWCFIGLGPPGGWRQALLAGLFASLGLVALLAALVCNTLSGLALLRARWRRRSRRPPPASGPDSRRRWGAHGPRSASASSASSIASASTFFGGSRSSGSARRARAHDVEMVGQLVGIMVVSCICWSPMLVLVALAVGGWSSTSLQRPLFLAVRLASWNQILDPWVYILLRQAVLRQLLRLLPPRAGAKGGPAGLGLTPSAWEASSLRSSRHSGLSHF
Experimental: Assay Buffer: • EP1 Calcium and DP1 cAMP Assays: HBSS plus 20 mM HEPES • EP2 and IP1 cAMP Assays: 1 mM IBMX in HBSS plus 20 mM HEPES
Cells were thawed from frozen cells and resuspended in assay buffer at desired concentrations. cAMP or Calcium assays were performed according to the manufacturer's protocol using Multiscreen™ TR-FRET cAMP 1.0 No Wash Assay Kit or Multiscreen™ Calcium 1.0 No Wash Kit.
Calcium Assay: Cells were seeded in a 384-well plate at an appropriate density. The calcium assay was conducted according to the manufacturer's protocols (Multiscreen Calcium 1.0 No Wash Assay Kit). The calcium dye loading buffer was added to the cells and incubated for 1 hour at 37° C. For agonist mode, cells were injected with Iloprost control agonist or test compound by FLIPR and calcium mobilization was monitored for 180 seconds with compound injected into the wells at the 19th second. Fluorescent emissions were read at 525 nm with excitation at 490 nm in a FLIPR 384 instrument (Molecular Devices).
Calcium Assay: Calcium assay results are expressed as “RFU” as defined in figure below. Data are represented in Mean±SEM. Dose-response curves were fitted using “Sigmoidal dose-response (variable slope)” function in GraphPad Prism 6. EC50 values were calculated based on the fitted curves.
Prostaglandin receptor activity assessments with treprostinil and treprostinil analogues have been conducted, and a historical, positive control agonist for these receptors, iloprost (for IP, EP2 and EP1) or PGD2 (for DP1), was also included. These studies used cell lines overexpressing either human IP, EP2 or DP1, or EP1 receptors, and following incubation with varying concentrations of compounds, cAMP levels were measured using Fluorescence Resonance Energy Transfer (FRET). The 665/620 (acceptor/donor emission signals) ratio is inversely proportional to the concentration of cAMP.

[8] = both, human, 1 μM, pH 7.4
[9] = male, Sprague-Dawley, rat, 1 μM, pH 7.4
[10] = male, Beagle, dog, 1 μM, pH 7.4
[11] = human, 1 μM
[12] = Stability and formation of treprostinil in rat liver microsomes; details: male, Sprague-Dawley, pH 7.4
[13] = Stability and formation of treprostinil in dog liver microsomes; details: male, Beagle, pH 7.4
[14] = Stability and formation of treprostinil in human liver microsomes; details: both, pH 7.4
[15] = cited from earlier work

With `CCCCC[C@@H](CC[C@@H]1[C@H]2Cc3cccc(OCC(=O)O)c3C[C@H]2C[C@H]1O)OC(C)=O` [Prodrug XLIII, 2-(((1R,2R,3aS,9aS)-1-((S)-3-acetoxyoctyl)-2-hydroxy-2,3,3a,4,9,9a-hexahydro-1H-cyclopenta[b]naphthalen-5-yl)oxy)acetic acid] the “Treprostinil Concentration, 0 min” value ([1]; 0 min, 1 μM) was 0.00744 µM, the “Treprostinil Concentration, 15 min” value ([1]; 15 min, 1 μM) was 0.573 µM and the “Treprostinil Concentration, 30 min” value ([1]; 30 min, 1 μM) was 0.623 µM. The “Treprostinil Concentration, 60 min” value ([1]; 60 min, 1 μM) was 0.54 µM, the “Treprostinil Concentration, 120 min” value ([1]; 120 min, 1 μM) was 0.507 µM and the “Treprostinil Concentration, 0 min” value ([2]; 0 min, 1 μM) was 0.00292 µM. The “Treprostinil Concentration, 15 min” value ([2]; 15 min, 1 μM) was 0.161 µM, the “Treprostinil Concentration, 30 min” value ([2]; 30 min, 1 μM) was 0.266 µM and the “Treprostinil Concentration, 60 min” value ([2]; 60 min, 1 μM) was 0.397 µM. The “Treprostinil Concentration, 120 min” value ([2]; 120 min, 1 μM) was 0.503 µM, the “Treprostinil Concentration, 0 min” value ([3]; 0 min, 1 μM) was 0.0381 µM and the “Treprostinil Concentration, 15 min” value ([3]; 15 min, 1 μM) was 0.628 µM. For the same compound, the “Treprostinil Concentration, 30 min” value ([3]; 30 min, 1 μM) was 0.543 µM, the “Treprostinil Concentration, 60 min” value ([3]; 60 min, 1 μM) was 0.446 µM and the “Treprostinil Concentration, 120 min” value ([3]; 120 min, 1 μM) was 0.4 µM. For the same compound, the “Activity, IP Relative to Tre” value [4] was 632x, the “Activity, EP2 Relative to Tre” value [5] was 461x and the “Activity, DP1 Relative to Tre” value [6] was 272x. For the same compound, the “Activity, EP1 Relative to Tre” value [7] was 20x*, the “Treprostinil Concentration, 0 min” value ([8]; 0 min) was 0.883 µM and the “Treprostinil Concentration, 15 min” value ([8]; 15 min) was 0.681 µM. For the same compound, the “Treprostinil Concentration, 30 min” value ([8]; 30 min) was 0.602 µM, the “Treprostinil Concentration, 60 min” value ([8]; 60 min) was 0.513 µM and the “Treprostinil Concentration, 120 min” value ([8]; 120 min) was 0.341 µM. For the same compound, the “Treprostinil Concentration, 0 min” value ([9]; 0 min) was 0.035 µM, the “Treprostinil Concentration, 15 min” value ([9]; 15 min) was 0.0741 µM and the “Treprostinil Concentration, 30 min” value ([9]; 30 min) was 0.111 µM. For the same compound, the “Treprostinil Concentration, 60 min” value ([9]; 60 min) was 0.145 µM, the “Treprostinil Concentration, 120 min” value ([9]; 120 min) was 0.206 µM and the “Treprostinil Concentration, 0 min” value ([10]; 0 min) was 0.964 µM. The “Treprostinil Concentration, 15 min” value ([10]; 15 min) was 0.917 µM, the “Treprostinil Concentration, 30 min” value ([10]; 30 min) was 0.899 µM and the “Treprostinil Concentration, 60 min” value ([10]; 60 min) was 0.932 µM. For the same compound, the “Treprostinil Concentration, 120 min” value ([10]; 120 min) was 0.873 µM, the “Treprostinil Concentration, 0 min” value ([11]; 0 min) was 0.0034 µM and the “Treprostinil Concentration, 30 min” value ([11]; 30 min) was 0.382 µM. For the same compound, the “Treprostinil Concentration, 60 min” value ([11]; 60 min) was 0.583 µM and the “Treprostinil Concentration, 120 min” value ([11]; 120 min) was 0.839 µM.

`C[C@]12CC[C@H]3[C@@H](CCC4=CC(=O)CC[C@@]43C)[C@@H]1CC[C@@H]2O` [Testosterone, testosterone] gave a hepatocyte CLint at 1 μM ([1]; hepatocytes) of 95.9 µL/min/1e6 cells, a hepatocyte CLint at 1 μM ([2]; hepatocytes) of 448 µL/min/1e6 cells and a half-life at 1 μM ([3]; hepatocytes) of 6.5 min. The Half-Life [12] was 1.71 min, the microsomal CLint [12] was 809 µL/min/mg and the Half-Life [13] was 37.7 min. It also gave a microsomal CLint [13] of 36.8 µL/min/mg, a Half-Life [14] of 29.2 min and a microsomal CLint [14] of 47.5 µL/min/mg.

For `CCCCC[C@H](O)CC[C@@H]1[C@H]2Cc3cccc(OCC(=O)O)c3C[C@H]2C[C@H]1O` [treprostinil, Treprostinil], the First-pass effect ([15]; oral delivery, animal studies) is listed as “approximately 60%” and the Half-life once absorbed ([15]; regardless of the route of administration) is listed as “about 1 hour”.
